Laboratory results published in patent US8404434B2, “Method for determining degree of negative effect of macrophages on vertebrate” (Yamasa Corporation, priority 2006, dated 2013).

What was measured:
Peritoneal macrophages [1] = test: Diacetylspermine production by cultured macrophages with the tricarboxylate carrier inhibitor BTA; assay type: cell-based, mice
Protocol: (§1) Peritoneal macrophages collected from mice injected with thioglycollate were inoculated into a 96-well microplate (1.25×10^5 cells/well), followed by culturing. In this case, cell culture was performed by use of RPMI 1640 medium containing 10% horse serum, the medium being supplemented with spermine (i.e., a raw material of diacetylpolyamine) (10 μM) and glucose (0, 1, or 2 g/L).
(§2) After completion of culturing, the levels of diacetylspermine and residual glucose contained in the medium were measured through a customary method. As is clear from FIG. 1, diacetylspermine is produced in response to depletion of glucose.
In order to examine the origin of acetyl CoA (i.e., a raw material of diacetylpolyamine), 1,2,3-benzyltricarboxylate (BTA), which is an inhibitor of a tricarboxylate carrier used for transportation of citrate from mitochondria to the cytoplasm, was added in an amount of 10 mM to a medium supplemented with no glucose, followed by measurement of diacetylspermine level.

Peritoneal macrophages [2] = test: Diacetylspermine production by cultured macrophages with the uncoupler DNP; assay type: cell-based, mice; settings: DNP 100 μM in medium, glucose 2 g/L, spermine 10 μM, cultured for two days; level in medium
Protocol: as §1, §2
Dinitrophenol (DNP), which is a reagent called “uncoupler” that forcibly reduces the active potential of mitochondria, is added to a medium in an amount of 100 μM, followed by culturing for two days in a manner similar to that described above. After completion of culturing, diacetylspermine level was measured. The medium was supplemented with glucose in an amount of 2 g/L.

Structure (SMILES)	Diacetylspermine (Peritoneal macrophages [1]; BTA 10 mM in medium supplemented with no glucose, level in medium) [nM]	production of diacetylspermine (Peritoneal macrophages [1]; BTA 10 mM, medium without glucose, result in words)	Diacetylspermine (Peritoneal macrophages [2]) [nM]
O=C(O)c1cccc(C(=O)O)c1C(=O)O [BTA, 1,2,3-benzyltricarboxylate]	43.0	inhibited	
O=[N+]([O-])c1ccc(O)c([N+](=O)[O-])c1 [DNP, Dinitrophenol]			61.8
